Laboratory results reported in patent US20240065982A1 (priority 2020, published 2024).

Experiment: Clearance of ionizable lipid from the mouse lung following chamber nebulization of mRNA LNP (LC-MS)
Format: in vivo
Experimental: On the day of dosing the LNP formulations were diluted to 1.2 mg/mL with PBS and 1.25 mL (1.5 mg dose) of these solutions are placed in Aerogen Solo nebulizer units which sit in a housing attached to a mouse chamber of dimensions 9″×4″×5″ (1×w×h) with a carbon filter attached. Six (6) Balb/C mice are dosed in the chamber at a time. An airflow of 1.5 L/min was forced through the nebulizer housing unit and the nebulizer turned on. During nebulization, some of the LNP condensed from the nebulizer and was collected and passed back through the nebulizer. This continued until no condensate was collected. Upon nebulization to dryness, the mice remained in the chamber for an extra 1-2 min until the LNP vapor dissipated. Complete nebulization of the LNP typically took ˜15 min. At each time points of 0.25 h (immediately after nebulization), 1 h, 6 h and 24 h, three (3) animals per formulation were euthanized with a lethal dosage of ketamine/xylazine and the lungs were excised and cut into ˜100 mg sections. These were placed in FastPrep tubes, fast frozen in liquid N2, and stored at […] until LC-MS analysis.
To the lung sections were added 5 volumes of PBS (e.g. to 50 mg of lung added 250 μL of PBS). These were then homogenized in a FastPrep instrument using 3 cycles of 15 sec each, with a speed of 5.0 m/s and were centrifuged at low speed. Spiked lung homogenate standards were prepared for each cationic lipid (103, 101 and 102) using the lung homogenates of mice dosed with PBS. For each cationic lipid, 10 standards were prepared: the highest standard at a concentration of 12,500 ng/mL with serial dilution by ½ down to 24.4 ng/mL. 20 μL of the homogenates (samples and standards) was added to 225 μL of ISS (IPA containing 100 ng/mL 1-B11 internal standard) in 96-well plates. The plates were mixed by pipetting up and down and were centrifuged at 2500 rpm for 15 min. The supernatant from these extractions were analyzed by LC-MS. By comparing the signal obtained for each sample to the appropriate standard curves for each cationic lipid (103, 101 and 102), the ng/mL of cationic lipid in each homogenate was determined. These values were then normalized to the exact mass of lung tissue that was analyzed. For the Non-biodegradable cationic lipid, the resulting average (n=3) ng 103/g of lung values were plotted without any further manipulation. For the Hydrolyzable cationic lipid, the ng/g of lung values at each time point for both 101 and 102 were combined to give the average (n=3) ng cationic lipid/g of lung values.

[1] = 24 h post administration, nebulized mRNA LNP, mice

| SMILES | fate of the lipid in the lungs by 24 h, in words [1] | % Cationic Lipid Remaining (Balb/C, mouse, in vivo) [%] | % Cationic Lipid Remaining (Balb/C, mouse, in vivo, 1 h) [%] | % Cationic Lipid Remaining (Balb/C, mouse, in vivo, 6 h) [%] | % Cationic Lipid Remaining (Balb/C, mouse, in vivo, 24 h) [%] | fate of the lipid in the lungs by 24 h, in words (Balb/C, mouse, in vivo, 24 h) |
| --- | --- | --- | --- | --- | --- | --- |
| CCCCC/C=C\CCCO[Si](CCCCN(C)CCO)(OCCC/C=C\CCCCC)OCCC/C=C\CCCCC [Example 102] | close to complete lipid hydrolysis |  |  |  |  |  |
| CCCCC/C=C\CCCO[Si](CCCCN(C)C)(OCCC/C=C\CCCCC)OCCC/C=C\CCCCC [Example 101] | close to complete lipid hydrolysis |  |  |  |  |  |
| CCCCC/C=C\CCCC(CCC/C=C\CCCCC)C(CCC/C=C\CCCCC)OC(=O)CCCCN(C)C (stereo not shown) [Example 103] |  | 100 | 120 | 90 | 94 | remained in the lungs for the complete 24 h |
